Measurements reported in ChEMBL document CHEMBL1201862, “PubChem BioAssay data set” (2004).
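Interpolation was linear, between the two tested concentrations surrounding the appropriate level; five concentrations were tested over 48 hours in 96-well plates. Abbreviation: GI50, concentration required for 50% inhibition of growth.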 Activity calls are given as the source filed them. No stated cut-off is given here; in the data, active = GI50 up to about 1.1 µM and inactive = higher.

What was measured:
Experiment in all cases: NCI tumour cell line growth inhibition, 48 h
786-0 = tested on: 786-0
COLO 205 = tested on: COLO 205
DU-145 = tested on: DU-145
EKVX = tested on: EKVX
HCC 2998 = tested on: HCC 2998
HCT-15 = tested on: HCT-15
HOP-92 = tested on: HOP-92
KM12 = tested on: KM12
MDA-MB-435 = tested on: MDA-MB-435
MOLT-4 = tested on: MOLT-4
NCI-H226 = tested on: NCI-H226
NCI-H522 = tested on: NCI-H522
OVCAR-4 = tested on: OVCAR-4
PC-3 = tested on: PC-3
RPMI-8226 = tested on: RPMI-8226
SF-295 = tested on: SF-295
SK-OV-3 = tested on: SK-OV-3
SNB-19 = tested on: SNB-19
TK-10 = tested on: TK-10
UACC-62 = tested on: UACC-62

SMILES	GI50 (786-0)	GI50 (COLO 205)	GI50 (DU-145)	GI50 (EKVX)	GI50 (HCC 2998)	GI50 (HCT-15) [µM]	GI50 (HOP-92)	GI50 (KM12)	GI50 (MDA-MB-435)	GI50 (MOLT-4)	GI50 (NCI-H226)	GI50 (NCI-H522)	GI50 (OVCAR-4)	GI50 (PC-3)	GI50 (RPMI-8226)	GI50 (SF-295)	GI50 (SK-OV-3)	GI50 (SNB-19)	GI50 (TK-10)	GI50 (UACC-62)
COc1cc2c[n+](C)c3c4cc(OC)c(OCc5ccccc5)cc4c(OCc4ccccc4)cc3c2cc1OC	13.2 µM (inactive)	0.429 µM (active)	11.5 µM (inactive)	38.5 µM (inactive)	11.7 µM (inactive)	97.9	1.84 µM (inactive)	10.5 µM (inactive)	1.74 µM (inactive)	2.54 µM (inactive)	2.26 µM (inactive)	0.416 µM (active)	4.11 µM (inactive)	2.5 µM (inactive)	25.7 µM (inactive)	25.7 µM (inactive)	5.68 µM (inactive)	0.923 µM (active)	23.3 µM (inactive)	2.6 µM (inactive)
Fc1ccc2c(c1)nc1n2C(c2c(F)cccc2F)SC1 (stereo unspecified)	66.7 µM (inactive)	80.2 µM (inactive)	> 100 µM (inactive)	29.2 µM (inactive)	71.6 µM (inactive)	38.3	26.2 µM (inactive)	18.2 µM (inactive)	49.9 µM (inactive)	25.8 µM (inactive)	> 100 µM (inactive)	30.1 µM (inactive)	48.2 µM (inactive)	51.6 µM (inactive)	78.9 µM (inactive)	30 µM (inactive)	59.2 µM (inactive)	45.4 µM (inactive)	46.7 µM (inactive)	45.5 µM (inactive)
O=C1Cc2c([nH]c3ccc(Br)cc23)-c2cc(O)c(O)cc2N1	> 100 µM (inactive)	> 100 µM (inactive)	> 100 µM (inactive)	> 100 µM (inactive)	> 100 µM (inactive)	> 100	> 100 µM (inactive)	> 100 µM (inactive)	> 100 µM (inactive)	71.8 µM (inactive)	> 100 µM (inactive)	> 100 µM (inactive)	> 100 µM (inactive)	> 100 µM (inactive)	> 100 µM (inactive)	> 100 µM (inactive)	> 100 µM (inactive)	> 100 µM (inactive)	> 100 µM (inactive)	> 100 µM (inactive)
NS(=O)(=O)c1nnc(NS(=O)(=O)c2ccc([N+](=O)[O-])cc2)s1	37.1 µM (inactive)	> 100 µM (inactive)	> 100 µM (inactive)	> 100 µM (inactive)	> 100 µM (inactive)	> 100	> 100 µM (inactive)	> 100 µM (inactive)	> 100 µM (inactive)	26.3 µM (inactive)	> 100 µM (inactive)	29.6 µM (inactive)	> 100 µM (inactive)	> 100 µM (inactive)	21.4 µM (inactive)	> 100 µM (inactive)	> 100 µM (inactive)	–	> 100 µM (inactive)	> 100 µM (inactive)
CC(=O)OCC1CCC(=C2C(=O)OC(C)(C)OC2=O)N1 (stereo unspecified)	> 100 µM (inactive)	> 100 µM (inactive)	> 100 µM (inactive)	> 100 µM (inactive)	> 100 µM (inactive)	> 100	> 100 µM (inactive)	> 100 µM (inactive)	> 100 µM (inactive)	> 100 µM (inactive)	> 100 µM (inactive)	> 100 µM (inactive)	> 100 µM (inactive)	> 100 µM (inactive)	> 100 µM (inactive)	> 100 µM (inactive)	> 100 µM (inactive)	> 100 µM (inactive)	> 100 µM (inactive)	> 100 µM (inactive)
COc1ccc2c(c1OC)C(=O)O[C@@H]2[C@H]1c2c(cc3c(c2OC)OCO3)CCN1C [NOSCAPINE]	49.9 µM (inactive)	63.5 µM (inactive)	> 100 µM (inactive)	–	79.4 µM (inactive)	43.4	> 100 µM (inactive)	45.8 µM (inactive)	4.86 µM (inactive)	23.5 µM (inactive)	> 100 µM (inactive)	30.3 µM (inactive)	> 100 µM (inactive)	50.1 µM (inactive)	23.3 µM (inactive)	30.3 µM (inactive)	73.1 µM (inactive)	80.5 µM (inactive)	–	56.9 µM (inactive)
C1CCNCC1.O=C1NC(=S)N/C1=C/c1ccccc1O	> 100 µM (inactive)	> 100 µM (inactive)	> 100 µM (inactive)	> 100 µM (inactive)	23.5 µM (inactive)	> 100	> 100 µM (inactive)	–	> 100 µM (inactive)	73.1 µM (inactive)	> 100 µM (inactive)	92 µM (inactive)	> 100 µM (inactive)	> 100 µM (inactive)	45.2 µM (inactive)	> 100 µM (inactive)	> 100 µM (inactive)	> 100 µM (inactive)	> 100 µM (inactive)	> 100 µM (inactive)
